The subject of assay [1] is luciferase-reporter HIV-1 NL4-3 pseudotyped with HxBc2 envelope produced in 293T cells. Briefly: microbe, parasite or virus in culture.
A further assay concerns HIV-1 IIIB. Briefly: Infection of Sup-T1 cells by HIV-1 IIIB, p24 ELISA. As to conditions: 50 μM, three days.
The target in the next assay is T1, HIV-1 MA (Human immunodeficiency virus type 1 group M subtype B, UniProt P03348).
T1 construct: His6 (N, cleaved yes); SUMO (N, cleaved yes); made in house; host or cells: Escherichia coli BL21 (DE3) Codon+-RIL
Briefly: Surface plasmon resonance direct binding to immobilized HIV-1 MA. Conditions: CM7 sensor chip, 10 μM (FIG. 14). The text has this: An assay was devised to monitor the interactions of small-molecule compounds to HIV-1 MA using SPR. In this assay, HIV-1LA1 MA was immobilized to the flow cells of a CM5 sensor chip to high density (˜1.3 kRU) or a CM7 sensor chip to high density (19 kRU) using standard amine coupling. A reference surface was similarly created by immobilizing the SUMO protein or a nonspecific antibody ARC4033 (antimouse/rat interferon-γ: BioSource). In small-molecule assays, the buffering system used is important due to the low responses obtained in binding assays. […] A stock solution of the MTI compounds was prepared by dissolving in 100% dimethyl sulfoxide (DMSO) to a final concentration of 10 mM.
To prepare the sample for analysis, 30 μL of the stock solution of the compound of the invention was added to sample preparation buffer (PBS, pH 7.2) to a final volume of 1 mL and mixed thoroughly. Preparation of analyte in this manner ensured that the concentration of DMSO was matched with that of running buffer with 3% DMSO. Lower concentrations of each compound were then prepared by two-fold serial dilutions into running buffer (PBS, 3% DMSO, pH 7.2). These compound dilutions were then injected over the control and MA surfaces at a flow rate of 30 μL min^−, for a 4-min association phase, followed by a 5-min dissociation phase.
In one aspect, owing to the relatively fast dissociation rates of these compounds, regeneration of these surfaces was accomplished by extensive washing of the system followed by a 5 min wait phase, a second wash, and a final 15 min wait phase. To secure complete regeneration, a buffer injection (5 min^on/5 min^off) was performed before each subsequent injection of compound.
Response to a small-molecule compound (NBD-556) specific for HIV-1 gp120 was also monitored to ensure specificity.
Data analysis was performed using BIAEvaluation 4.0 software (GE Healthcare). The responses of a buffer injection and responses from the ARC4033-immobilized reference cell were subtracted to account for nonspecific binding. The average maximum response was generated from a minimum of 3 data sets and was used to define the standard deviation for each compound binding to the HIV-1 MA protein.
The MTI compounds are predicted to interact with HIV-1 MA and thereby disrupt its functioning during the HIV-1 replication cycle. However, it is possible that a compound might exert its action via another mechanism not involving MA. Therefore, studies were performed to determine that the MTI compounds are directed against HIV-1 MA. The direct interaction of compounds CMPD-18, CMPD-17, CMPD-7, and CMPD-14 with HIV-1 MA was assayed using surface plasmon resonance interaction analyses. Wild-type HIV-1 MA protein was overproduced in E. coli using the pETHSUL expression system and purified using successive IMAC strategies, followed by an ion exchange chromatographic step as outlined in Materials and Methods. FIG. 6 illustrates the purification profile of HIV-1 MA. The purified MA was then immobilized onto the surface of a high-capacity CM7 sensor chip. Similarly, the monoclonal antibody ARC4033 (antimouse/rat interferon-γ; BioSource, Invitrogen, Carlsbad, Calif.) was immobilized on a CM7 sensor chip and was used to correct for background binding and instrument and buffer artifacts.
(SPR reads the build-up and loss of mass on a sensor chip optically.)

`COc1ccc(NC(C)=O)cc1NC(=O)Cn1cnc2scc(-c3ccc(C)s3)c2c1=O` [CMPD-10, N-(5-acetamido-2-methoxyphenyl)-2-(5-(5-methylthiophen-2-yl)-4-oxothieno[2,3-d]pyrimidin-3(4H)-yl)acetamide] yielded an IC50 in assay [1] of 31 µM. In addition, the “HIV-1 replication (p24), in words” value with HIV-1 IIIB was “inhibited HIV-1 replication, albeit to a lesser extent”.

As to `O=C1NC(c2ccccc2)(c2ccccc2)C(=O)N1CN1CCC(c2nc3ccccc3o2)CC1` [CMPD-13, 3-((4-(benzo[d]oxazol-2-yl)piperidin-1-yl)methyl)-5,5-diphenylimidazolidine-2,4-dione], in the assay on HIV-1 IIIB, the “HIV-1 replication (p24), in words” value is “no effect”.

As to `O=C(NCc1ccc(CN2CCCC2)cc1)c1ccc(C2SCCCS2)cc1` [CMPD-19, 4-(1,3-dithian-2-yl)-N-(4-(pyrrolidin-1-ylmethyl)benzyl)benzamide], in assay [1], half-maximal inhibition (IC50) required 26 µM. Besides, in the assay on HIV-1 IIIB, the “HIV-1 replication (p24), in words” value is “inhibited”.

For `CC1(C)CC(NC(=O)C(=O)Nc2ccc(Cl)cc2)CC(C)(C)N1` [NBD-556, N-(4-chlorophenyl), —N′-(2,2,6,6-tetramethylpiperidin-4-yl)-oxalamide, reference compound], the “direct interaction with sensor chip-immobilized HIV-1 MA” value at HIV-1 MA is “no such interaction”.

In general, IC50 refers to the concentration that inhibits the measured activity by half.

These data come from patent US20130109698A1, “Small Molecule Inhibitors of Functions of the HIV-1 Matrix Protein” (priority 2010, published 2013).
